Literature values as cited in EP1897537A1, “Composition comprising an angiotensin II receptor antagonist” (Novartis AG, priority 2006, dated 2008).

How the values were obtained:
[1] = immediate release tablet formulation (Diovan ®)
[2] = most acidic pKa; fumaric acid values at 25 °C

Row | bioavailability [1] | pKa1 [2] | SMILES
1 | around 30% |  | CCCCC(=O)N(Cc1ccc(-c2ccccc2-c2nnn[nH]2)cc1)[C@H](C(=O)O)C(C)C [Valsartan, (S)-N-(1-carboxy-2-methylprop-1-yl)-N-pentanoyl-N-[2'-(1H-tetrazol-5-yl)biphenyl-4-ylmethyl]amine]
2 |  | about 4.2 | O=C(O)CCC(=O)O [succinic acid]
